Experimental data taken from ChEMBL document CHEMBL5316372, “NMR Fingerprints of Formyl Phloroglucinol Meroterpenoids and Their Application to the Investigation of Eucalyptus gittinsii subsp. gittinsii” (J Nat Prod, 2023).
In brackets after ≈: the same amount, converted by molar mass.

Experiments:
Staphylococcus aureus [1] = experiment: Antibacterial activity against Methicillin-resistant Staphylococcus aureus ATCC 43300 incubated for 18 hrs by Luria-Bertani broth based plate reader analysis; type: functional
Staphylococcus aureus [2] = experiment: Antibacterial activity against Methicillin-sensitive Staphylococcus aureus ATCC 25923 incubated for 18 hrs by Luria-Bertani broth based plate reader analysis; type: functional
[3] = Cytotoxicity against HEK293 cells assessed as inhibition of cell growth at 40 uM incubated for 72 hrs by resazurin based fluorescence plate reader analysis relative to control; type: toxicity; conditions: human
Plasmodium falciparum = experiment: Antiplasmodial activity against Plasmodium falciparum 3D7 incubated for 72 hrs by DAPI staining based analysis; type: functional, organism-based; conditions: 3D7, 72 h
HEK293 [4] = experiment: Cytotoxicity against HEK293 cells assessed as reduction in cell viability at 40 uM incubated for 72 hrs by resazurin based fluorescence plate reader analysis; type: toxicity; conditions: human, hek293, 72 h
HEK293 [5] = experiment: Cytotoxicity against HEK293 cells assessed as reduction in cell viability at 2.5 uM incubated for 72 hrs by resazurin based fluorescence plate reader analysis; type: toxicity; conditions: human, hek293, 72 h
[6] = Cytotoxicity against HEK293 cells assessed as inhibition of cell growth at 5 uM incubated for 72 hrs by resazurin based fluorescence plate reader analysis relative to control; type: toxicity; conditions: human

SMILES	MIC50 (Staphylococcus aureus [1])	MIC50 (Staphylococcus aureus [2])	inhibition at 72 h, 40 µM [3]	IC50 (Plasmodium falciparum)	Activity (HEK293 [4])	Activity (HEK293 [5])	inhibition at 72 h, 5 µM [6]
CC(=O)O[C@H]1C[C@@]2(C)[C@@H](C[C@@H](O)[C@H]3[C@@]4(C)CC[C@@H](O)[C@@H](C)[C@@H]4CC[C@@]32C)/C1=C(\CCC=C(C)C)C(=O)O [FUSIDIC ACID]	< 0.12 µM	< 0.12 µM	–	–	–	–	–
C=C(C)[C@@H]1C=C2[C@@H](C)CC[C@@H](Cc3c(O)c(C=O)c(O)c(C(=O)CC(C)C)c3O)[C@]2(C)CC1	4.7 µM (≈ 2.14 µg/mL)	4.7 µM (≈ 2.14 µg/mL)	> 85%	1300 nM	–	–	–
C/C1=C\[C@@H]2[C@H](CC[C@@]3(C)Oc4c(c(O)c(C=O)c(O)c4C(=O)CC(C)C)C[C@@H]3CC1)C2(C)C	75 µM (≈ 34.1 µg/mL)	75 µM (≈ 34.1 µg/mL)	–	15700 nM	Non-Toxic	–	–
C/C1=C\[C@H]2[C@@H](CC[C@]3(C)Oc4c(C=O)c(O)c(C(=O)CC(C)C)c(O)c4C[C@H]3CC1)C2(C)C	> 75 µM	> 75 µM	–	23600 nM	Non-Toxic	–	–
CCc1nc(N)nc(N)c1-c1ccc(Cl)cc1 [PYRIMETHAMINE]	–	–	33.4%	20 nM	–	–	–
C[C@H]1[C@H](OC(=O)CCC(=O)O)O[C@@H]2O[C@@]3(C)CC[C@H]4[C@H](C)CC[C@@H]1[C@@]24OO3 [ARTESUNATE]	–	–	–	3 nM	–	Non-Toxic	–
COc1ccc(C[C@H](N)C(=O)N[C@H]2[C@@H](O)[C@H](n3cnc4c(N(C)C)ncnc43)O[C@@H]2CO)cc1 [PUROMYCIN]	–	–	–	80 nM	–	–	0.89%
